We go through one molecule from patent US20080188560A1, “Cosmetic Compositions and Methods For Sensory Cooling” (priority 2004, published 2008).

A short description of this data set: Cooling effect/cooling potential: heat of fusion by Differential Scanning Calorimeter. It is filed as physicochemical. The following applies: Pyris 1 DSC, sample cooled to −10° C., heated 10° C. per minute up to 50° C., area under the peak. How it is done: Four samples of the composition are prepared with 10%, 20% and 40% of the stearyl heptanoate in three samples and 40% Marrix (C12-C15 Alkyl Furmurate) in a fourth sample. Each sample is first weighed and subsequently cooled to −10° C. A Calorimeter (Pyris 1 Differential Scanning Calorimeter from Perkin Elmer) is used to apply heat to each sample at one minute increments, 10° C. per minute up to 50° C. The Calorimeter measures the heat of the sample at each increment. The resulting readings of heat are plotted against time for each sample. The Calorimeter measures the area under the peak on the plot to calculate the Heat of fusion (J/g) for each sample. The heat of fusion for the sample is the energy required to melt the sample from a solid form to a liquid form. The heat of fusion for the sample identifies the amount of energy the sample can absorb. Therefore, to correlate to the cooling on the skin, the higher the heat of fusion of a sample/material, the more heat the sample/material will absorb from the skin upon application to correspondingly create a cooling sensation on the skin.
(In general: DSC measures the heat that a sample takes up or gives off during a temperature scan.)

`CCCCCCCCCCCCCCCCCCOC(=O)CCCCCC` [Active alone, Stearyl Heptanoate]: the “(ΔH) Heat of fusion” value is on record as 174.3 J/g. The “(ΔH) Heat of fusion” value (listed as active alone) stood at 174.3 J/g. Besides, the “(ΔH) Heat of fusion” value (listed as stearyl heptanoate) worked out at 74.5 J/g.
